Each structure is given as a SMILES string.

Substance-P receptor, sequence (P25103 whole entry): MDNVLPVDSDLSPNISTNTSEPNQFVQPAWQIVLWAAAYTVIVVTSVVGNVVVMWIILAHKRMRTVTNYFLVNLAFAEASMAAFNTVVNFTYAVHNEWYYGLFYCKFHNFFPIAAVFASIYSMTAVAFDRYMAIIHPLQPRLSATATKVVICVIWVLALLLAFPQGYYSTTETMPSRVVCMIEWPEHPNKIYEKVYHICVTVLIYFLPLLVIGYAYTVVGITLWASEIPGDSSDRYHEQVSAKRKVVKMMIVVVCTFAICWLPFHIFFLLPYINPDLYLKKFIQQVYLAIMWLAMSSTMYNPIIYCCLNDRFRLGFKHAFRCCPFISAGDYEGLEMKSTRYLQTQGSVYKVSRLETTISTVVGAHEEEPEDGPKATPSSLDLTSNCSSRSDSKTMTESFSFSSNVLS

The assay has as its target Substance-P receptor (Homo sapiens, UniProt P25103). As to the kind of experiment: Compound was tested in vitro for its Tachykinin receptor 1 affinity by the displacement of [125I]Bolton-Hunter substance p from human IM-9 cells. The assay is classed as cell-based. In general terms: Loss of bound radioactivity is the signal in a displacement assay; it reports binding, not function.
Broadly, the IC50 is the midpoint of a concentration-inhibition curve. Read a high IC50 as weaker potency. `COc1ccccc1CN[C@H]1C2CC[N+](Cc3ccccc3)(CC2)[C@H]1C(c1ccccc1)c1ccccc1` showed an IC50 of 0.332 µM.
`C=CC[N+]12CCC(CC1)[C@H](NCc1ccccc1OC)[C@@H]2C(c1ccccc1)c1ccccc1` yielded an IC50 of 0.0223 µM.
For the compound `COc1ccccc1CN[C@H]1C2CC[N+](C)(CC2)[C@H]1C(c1ccccc1)c1ccccc1`, the IC50 was 0.0122 µM.
Take `CCOC(=O)C[N+]12CCC(CC1)[C@H](NCc1ccccc1OC)[C@@H]2C(c1ccccc1)c1ccccc1`: the IC50 worked out at 0.0327 µM.
`COc1ccccc1CN[C@H]1C2CC[N+](CC(N)=O)(CC2)[C@H]1C(c1ccccc1)c1ccccc1`: the IC50 was found to be 0.0013 µM.

(Values after ChEMBL document CHEMBL1127285, “N-alkyl quinuclidinium substance P antagonists” (Bioorg Med Chem Lett, 1994).)
